Experiments:
Type in all cases: cell-based
[1] = tested on: Paracoccus sp. strain A-581-1 (FERM BP-4671); experiment: Example 6: cobalt concentration series, growth (OD610) and carotenoid levels (HPLC)
Method: (§1) In the following examples, carotenoids were quantified by high performance liquid chromatography (HPLC) as follows.
(§2) Two columns of Inertsil SIL-100A, 5 μm (ϕ4.6 mm×250 mm) (GL Sciences Inc., Japan) were connected together for use as a column. For elution, a mixed solution of n-hexane, tetrahydrofuran and methanol (40:20:1) serving as a mobile phase was passed through the column at a flow rate of 1.0 mL per minute at a constant temperature around room temperature. For measurement, samples were each dissolved in tetrahydrofuran and diluted 100-fold with the mobile phase, and 20 μL aliquots of the resulting dilutions were injected into the column. The column eluates were detected at a wavelength of 470 nm. As a standard for quantification, astaxanthin (SIGMA, Cat. No. A9335) was used. The astaxanthin concentration of the standard solution was determined using the following equation after measuring the absorbance (A) of the standard solution at 477 nm and the area percentage % (B) of the astaxanthin peak in HPLC analysis under the above conditions.
The ingredients used to prepare the test tube medium for seed culture were obtained from lots where microbial cells had been confirmed to grow well.
The ingredients used to prepare the test tube medium for production were obtained from lots where microbial cells had been confirmed not to grow well.
The resulting culture solution was then inoculated in 0.05 ml volumes into the 7 types of test tube media for production having different cobalt concentrations, and cultured under shaking at 29° C. for 4 days at 300 spm.
After being cultured for 4 days, the culture solutions were each measured for microbial cell growth by OD610 and measure for carotenoid levels by HPLC.

[2] = tested on: Paracoccus carotinifaciens mutant strain CF-358; experiment: Example 5: 5 L fermenter culture with cobalt chloride, growth (OD610) and carotenoid levels (HPLC)
Method: as §1
as §2, with “conditions. […]” for “conditions.”
The ingredients used to prepare the seed flask medium were obtained from lots where microbial cells had been confirmed to grow well.
The resulting culture solution was then inoculated in 80 ml volumes into the individual fermenters, followed by aeration spinner culture at 28° C. under a gauge pressure of 0.01 MPa at an aeration volume of 1.5 vvm for 5 days. To maintain a pH of 7.2 during culture, 15% aqueous ammonia was automatically supplied. The number of spinner rotations was automatically varied such that the dissolved oxygen concentration in each culture solution was maintained at 2 to 4 ppm. An alcohol-based defoaming agent was automatically added to avoid bubbling.
At the completion of culture, the culture solutions were each measured for microbial cell growth by OD610 and measured for carotenoid levels by HPLC (Table 10).

[3] = tested on: Paracoccus carotinifaciens strain E-396 (FERM BP-4283)
Method: Subsequently, a medium of the following composition (glucose 30 g/L, filtered corn steep liquor 30 g/L, ammonium sulfate 1.5 g/L, potassium dihydrogen phosphate 1.5 g/L, disodium hydrogen phosphate dodecahydrate 3.8 g/L, calcium chloride dihydrate 5.0 g/L, magnesium sulfate heptahydrate 0.7 g/L, iron sulfate heptahydrate 1.0 g/L, silicon-based defoaming agent 0.2 g/L) was dispensed in 7.2 ml volumes into cotton-plugged test tubes having an inner diameter of 18 mm to prepare 13 test tubes containing a test tube medium for production. The ingredients used to prepare the test tube medium for production were obtained from lots where microbial cells had been confirmed not to grow well.
The 12 trace metals indicated in Table 1 were separately prepared in 0.8 ml volumes to have their final concentrations indicated in Table 1 and then added to the above 12 test tubes for production, respectively. The remaining one test tube was supplemented with 0.8 ml of ion exchanged water.
The resulting culture solution was then inoculated in 0.05 ml volumes into the 13 types of test tube media for production and cultured under shaking at 28° C. for 4 days at 300 spm.

[4] = cobalt added 0.00042 μmol/L, total 0.0024 μmol/L
[5] = cobalt added 0.0042 μmol/L, total 0.0062 μmol/L
[6] = cobalt added 0.042 μmol/L, total 0.044 μmol/L
[7] = cobalt added 0.42 μmol/L, total 0.42 μmol/L
[8] = cobalt added 4.2 μmol/L, total 4.2 μmol/L
[9] = cobalt added 42 μmol/L, total 42 μmol/L
[10] = cobalt added 0.042 μmol/L, total 0.045 μmol/L
[11] = cobalt added 21 μmol/L, total 21 μmol/L

## O.O.O.O.O.O.[Cl-].[Cl-].[Co+2] [Cobalt chloride hexahydrate]
[1]; [4]
  Astaxanthin: 0.3 mg/L
  OD610: 3
  Total carotenoid: 0.9 mg/L
[1]; [5]
  Astaxanthin: 0.5 mg/L
  OD610: 5
  Total carotenoid: 1.7 mg/L
[1]; [6]
  Astaxanthin: 2.0 mg/L
  OD610: 21
  Total carotenoid: 5.3 mg/L
[1]; [7]
  Astaxanthin: 2.1 mg/L
  OD610: 22
  Total carotenoid: 5.6 mg/L
[1]; [8]
  Astaxanthin: 1.2 mg/L
  OD610: 21
  Total carotenoid: 5.5 mg/L
[1]; [9]
  Astaxanthin: 0.0 mg/L
  OD610: 2
  Total carotenoid: 0.2 mg/L
[2]; [10]
  Carotenoid: 3-Hydroxyechinenone: 12 mg/L
  Carotenoid: Adonirubin: 273 mg/L
  Carotenoid: Adonixanthin: 45 mg/L
  Carotenoid: Astaxanthin: 775 mg/L
  Carotenoid: Asteroidenone: 11 mg/L
  Carotenoid: Canthaxanthin: 90 mg/L
  Carotenoid: Echinenone: 37 mg/L
  Carotenoid: β-Carotene: 58 mg/L
  OD610: 194
  Total carotenoid: 1302 mg/L
  Total carotenoid/dry microbial cells: 41.9 mg/g
[2]; [7]
  Carotenoid: 3-Hydroxyechinenone: 12 mg/L
  Carotenoid: Adonirubin: 216 mg/L
  Carotenoid: Adonixanthin: 73 mg/L
  Carotenoid: Astaxanthin: 815 mg/L
  Carotenoid: Asteroidenone: 15 mg/L
  Carotenoid: Canthaxanthin: 74 mg/L
  Carotenoid: Echinenone: 37 mg/L
  Carotenoid: β-Carotene: 60 mg/L
  OD610: 208
  Total carotenoid: 1303 mg/L
  Total carotenoid/dry microbial cells: 39.1 mg/g
[2]; [8]
  Carotenoid: 3-Hydroxyechinenone: 5 mg/L
  Carotenoid: Adonirubin: 285 mg/L
  Carotenoid: Adonixanthin: 18 mg/L
  Carotenoid: Astaxanthin: 580 mg/L
  Carotenoid: Asteroidenone: 3 mg/L
  Carotenoid: Canthaxanthin: 338 mg/L
  Carotenoid: Echinenone: 61 mg/L
  Carotenoid: β-Carotene: 29 mg/L
  OD610: 191
  Total carotenoid: 1319 mg/L
  Total carotenoid/dry microbial cells: 43.2 mg/g
[2]; [11]
  Carotenoid: 3-Hydroxyechinenone: 4 mg/L
  Carotenoid: Adonirubin: 347 mg/L
  Carotenoid: Adonixanthin: 7 mg/L
  Carotenoid: Astaxanthin: 103 mg/L
  Carotenoid: Asteroidenone: 1 mg/L
  Carotenoid: Canthaxanthin: 431 mg/L
  Carotenoid: Echinenone: 103 mg/L
  Carotenoid: β-Carotene: 27 mg/L
  OD610: 143
  Total carotenoid: 1023 mg/L
  Total carotenoid/dry microbial cells: 44.9 mg/g
[2]; final concentration of 0.042 to 21 μmol/L
  total carotenoid production level, in words: high
[3]
  microbial cell growth (by OD610), in words: good growth
[3]; each trace metal added singly at final concentration of Table 1, shaking at 28° C. for 4 days
  OD610: 32

From patent publication US10947574B2, “Method for producing fermented carotenoid using carotenoid-producing bacteria obtained by using cobalt-containing culturing medium” (ENEOS CORPORATION, priority 2015, dated 2021)
